Data on twelve compounds can be found in patent US9908886B2 (Agency for Science, Technology and Research, priority 2012, dated 2018).

One test deals with MNK1 (Homo sapiens, UniProt Q9BUB5). The experiment in a line: In vitro MNK kinase assay (Caliper LabChip mobility shift). The format is biochemical. As to conditions: enzymatic, 1.2 mM ATP; read-out: IC50 Mnk1.
The target of the next test is MNK2 (Homo sapiens (Human), UniProt Q9HBH9). Described as above. As to conditions: enzymatic, 250 μM ATP; read-out: IC50 Mnk2. Format: biochemical.

Structures are written as SMILES. Structures can show the parent of a compound that is named as a salt.

MNK2, sequence (Q9HBH9 84-388): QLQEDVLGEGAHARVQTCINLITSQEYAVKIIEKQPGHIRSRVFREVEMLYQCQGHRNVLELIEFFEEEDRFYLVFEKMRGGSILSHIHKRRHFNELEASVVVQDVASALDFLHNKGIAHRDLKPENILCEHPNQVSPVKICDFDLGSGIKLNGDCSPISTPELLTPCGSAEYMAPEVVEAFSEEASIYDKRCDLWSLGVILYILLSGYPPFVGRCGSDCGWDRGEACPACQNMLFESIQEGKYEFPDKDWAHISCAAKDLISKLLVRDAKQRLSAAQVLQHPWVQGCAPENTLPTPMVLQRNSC

Usually IC50 stands for the concentration that inhibits the measured activity by half. As to `CC1(C)CCN(C(=O)c2ccc(-c3cn4c(-c5ccc(C(N)=O)cc5)cnc4cn3)cc2)CC1` [Example 3, 4-(6-(4-(4,4-dimethylpiperidine-1-carbonyl)phenyl)imidazo[1,2-a]pyrazin-3-yl)benzamide], the IC50 on MNK1 was under 1 µM; on MNK2 it was under 0.1 µM. The like results for `NC(=O)c1ccc(-c2cnc3cnc(-c4ccc(C(=O)N5CCC(N)CC5)cc4)cn23)cc1` [Example 4, 4-(6-(4-(4-aminopiperidine-1-carbonyl)phenyl)imidazo[1,2-a]pyrazin-3-yl)benzamide hydrochloride] were, in that order, under 0.1 µM and under 0.1 µM. The like results for `CC(C)(C)N1CCN(C(=O)c2ccc(-c3cn4c(-c5ccc(C(N)=O)cc5)cnc4cn3)cc2)CC1` [Example 5, 4-(6-(4-(4-tert-butylpiperazine-1-carbonyl)phenyl)imidazo[1,2-a]pyrazin-3-yl)benzamide] were, in that order, under 0.1 µM and under 0.1 µM. For `N#Cc1ccc(-c2cnc3cnc(-c4ccc(C(=O)N5CCOCC5)cc4)cn23)cc1` [Example 7, 4-(6-(4-(morpholine-4-carbonyl)phenyl)imidazo[1,2-a]pyrazin-3-yl)benzonitrile] the same measures were under 1 µM and under 1 µM. On to `CNC1CCN(C(=O)c2ccc(-c3cn4c(-c5ccc(C#N)cc5)cnc4cn3)cc2)CC1` [Example 9, 4-(6-(4-(4-(methylamino)piperidine-1-carbonyl)phenyl)imidazo[1,2-a]pyrazin-3-yl)benzonitrile], for which the IC50 at MNK1 and at MNK2 was under 1 µM in each case.

As to `N#Cc1ccc(-c2cnc3cnc(-c4ccc(C(=O)N5CCN(C6CC6)CC5)cc4)cn23)cc1` [Example 14, 4-(6-(4-(4-cyclopropylpiperazine-1-carbonyl)phenyl)imidazo[1,2-a]pyrazin-3-yl)benzonitrile], the 50% inhibitory concentration (IC50) on MNK1 and at MNK2 was under 1 µM throughout. As for `N#Cc1ccc(-c2cnc3cnc(-c4ccc(C(=O)N5CCC(O)CC5)cc4)cn23)cc1` [Example 15, 4-(6-(4-(4-hydroxypiperidine-1-carbonyl)phenyl)imidazo[1,2-a]pyrazin-3-yl)benzonitrile], the half-maximal inhibitory concentration (IC50) on MNK1 and on MNK2 was under 1 µM each time. Consider `CN1CCCN(C(=O)c2ccc(-c3cn4c(-c5ccc(C#N)cc5)cnc4cn3)cc2)CC1` [Example 17, 4-(6-(4-(4-methyl-1,4-diazepane-1-carbonyl)phenyl)imidazo[1,2-a]pyrazin-3-yl)benzonitrile], for which the half-inhibitory concentration (IC50) at MNK1 and on MNK2 was under 1 µM each time. For `CN(C)C1CCN(C(=O)c2ccc(-c3cn4c(-c5ccc(C#N)cc5)cnc4cn3)cc2)CC1` [Example 21, 4-(6-(4-(4-(dimethylamino)piperidine-1-carbonyl)phenyl)imidazo[1,2-a]pyrazin-3-yl)benzonitrile], the IC50 on MNK1 and at MNK2 was under 1 µM throughout.

Consider `CC1(N)CCN(C(=O)c2ccc(-c3cn4c(-c5ccc(C#N)cc5)cnc4cn3)cc2)CC1` [Example 23, 4-(6-(4-(4-amino-4-methylpiperidine-1-carbonyl)phenyl)imidazo[1,2-a]pyrazin-3-yl)benzonitrile Hydrochloride Salt], for which the results for the half-maximal inhibitory concentration (IC50) at MNK1 and on MNK2 were under 1 µM and under 0.1 µM, respectively. For `O=C(c1ccc(-c2cn3c(-c4ccc(Cl)cc4)cnc3cn2)cc1)N1CCC(NC(=O)C(F)(F)F)CC1` [Example 48, N-(1-(4-(3-(4-chlorophenyl)imidazo[1,2-a]pyrazin-6-yl)benzoyl)piperidin-4-yl)-2,2,2-trifluoroacetamide], at MNK1, the IC50 is under 1 µM.

In the case of `CN1CCN(C(=O)c2ccc(-c3ccc4ncc(-c5ccc(O)cc5)n4c3)cc2)CC1` [Example 175, (4-(3-(4-hydroxyphenyl)imidazo[1,2-a]pyridin-6-yl)phenyl)(4-methylpiperazin-1-yl)methanone], the IC50 on MNK2 was under 0.1 µM.
